Experimental data as given in patent US8624027B2, “Combination therapy for treating cancer and diagnostic assays for use therein” (AbbVie Inc., priority 2005, dated 2014).
Like-named read-outs stand apart in the source and are kept apart here.

Experiments:
[1] = tested on: NCI-H146 human small cell lung carcinoma cells; experiment: Cellular efficacy in human tumor cell line (MTS viability assay); assay type: cell-based; conditions: NCI-H146, 10% human serum, 48 hours
Procedure: NCI-H146 (ATCC, Manassas, Va.) human small cell lung carcinoma cells were plated 50,000 cells per well in 96-well tissue culture plates in a total volume of 100 μL tissue culture medium supplemented with 10% human serum (Invitrogen, Carlsbad, Calif.) instead of fetal bovine serum and treated with a 2-fold serial dilution of the compounds of interest from 10 μM to 0.020 μM. Each concentration was tested in duplicate at least 3 separate times. The number of viable cells following 48 hours of compound treatment was determined using the CellTiter 96® AQueous non-radioactive cell proliferation MTS assay according to manufacturer's recommendations (Promega Corp., Madison, Wis.).

[2] = Pharmacokinetic evaluation in rat; assay type: in vivo; conditions: male, Sprague-Dawley, plasma; for AUC(0-inf): single 5 mg/kg oral dose, Table 1, read-out: Pharmacokinetic area under the plasma concentration Curve (rat) AUC0-∞
Procedure: The pharmacokinetic behavior of compounds of this disclosure was determined following a single 2 mg/kg intravenous or 5 mg/kg oral dose in male Sprague-Dawley derived rats (n=3 per group). The compounds were prepared as 2 mg/mL solution in a 10% DMSO in PEG-400 formulation for both oral and intravenous administration. The 1 mL/kg intravenous dose was administered as a slow bolus (about 1-2 minutes) in the jugular vein of a rat under light ether anesthetic. The oral dose was administered by gavage. Serial blood samples were obtained from a tail vein of each rat prior 0.1 (IV only), 0.25, 0.5, 1, 1.5, 2, 3, 4, 6, 8 and 24 hours after dosing. The heparinized samples were thoroughly mixed and placed in an ice bath. Plasma was separated by centrifugation and stored frozen prior to analysis.
The compounds of interest were separated from the plasma using protein precipitation with acetonitrile. A plasma (100-200 μL, sample or spiked standard) aliquot was combined with 50 μL of internal standard (structurally related analog prepared in acetonitrile) and 1 ml acetonitrile in a 96-well polypropylene deep well plate. The plates were vortexed for 30 seconds followed by centrifugation (3500 rpm×15 minutes, 4° C.). In an automated manner, the supernatant was transferred to a clean 96-well plate. The samples were evaporated to near dryness on a Micro-Vap™ under a stream of dry nitrogen over low heat (˜37° C.). The samples were reconstituted vortexing with 0.2 mL 5% DMSO in acetonitrile. A 0.1-0.2 ml aliquot of acetonitrile: 0.1% trifluoroacetic acid (20:80, by volume) was added to each well, followed by an additional 30 second vortexing. The plates were centrifuged (3500 rpm×15 minutes, 4° C.) prior to HPLC-MS/MS analysis. Samples were analyzed simultaneously with spiked plasma standards. All samples from each study were analyzed as a single batch on the LC-MS/MS.
The compounds of interest and the internal standard were separated from each other and co-extracted contaminants on a 50×3 mm Keystone Betasil CN 5 μm column with an acetonitrile: 0.1% trifluoroacetic acid mobile phase (50:50, by volume) at a flow rate of 0.7 ml/min. Analysis was performed on a Sciex API 300™ Biomolecular Mass Analyzer using a heated nebulizer interface. Peak areas of the title compounds and internal standards were determined using the Sciex MacQuan™ software. Calibration curves were derived from peak area ratio (parent drug/internal standard) of the spiked rat plasma standards using least squares linear regression of the ratio versus the theoretical concentration. The methods were generally linear over the range of the standard curve (correlation coefficients >0.99) with an estimated quantitation limit of 0.01 μg/mL. The plasma concentration data for each animal were submitted to multi-exponential curve fitting using WinNonlin. The area under the plasma concentration-time curve from 0 to t hours (time of the last measurable plasma concentration) after dosing (AUC0-t) was calculated using the linear trapezoidal rule for the plasma concentration-time profiles. The residual area extrapolated to infinity, determined as the final measured plasma concentration (Ct) divided by the terminal elimination rate constant (β), was added to AUC0-t to produce the total area under the curve (AUC0-∞). Ki values shown in the tables below were determined using Wang's equation (Wang Z X., An Exact Mathematical Expression For Describing Competitive Binding Of Two Different Ligands To A Protein Molecule. FEBS Lett. 1995; 360:111-4)).

[3] = molecular target: Bcl-XL protein (Homo sapiens, UniProt Q07817); experiment: Bcl-XL binding affinity, fluorescence polarization with fluorescein-labeled BAD peptide; conditions: Wang's equation, read-out: Target Binding Affinity Ki (Bcl-XL)
[4] = molecular target: T1, Bcl-2 protein (Homo sapiens, UniProt P10415, DELINS35-91DVEENRTEAPEGTESE, form not given); experiment: Bcl-2 binding affinity, fluorescence polarization with fluorescein-labeled BAX peptide; conditions: Wang's equation, read-out: Target Binding Affinity Ki (Bcl-2)
T1 construct: fused on or other part: A short piece of the Bcl-xL (Q07817) loop replaces Bcl-2 loop residues 35-91; The C-terminal membrane anchor is absent

[5] = Table 1, read-out: NCI-H146 Cellular Efficacy EC50

Bcl-XL protein, sequence (Q07817 with tags, fused parts or gaps DEL45-84): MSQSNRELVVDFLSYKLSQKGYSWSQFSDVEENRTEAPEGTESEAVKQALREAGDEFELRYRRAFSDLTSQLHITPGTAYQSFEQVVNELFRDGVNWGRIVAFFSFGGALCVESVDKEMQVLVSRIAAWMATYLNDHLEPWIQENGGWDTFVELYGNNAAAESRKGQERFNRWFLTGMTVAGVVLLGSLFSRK
T1 sequence (P10415 with tags, fused parts or gaps with the stated changes): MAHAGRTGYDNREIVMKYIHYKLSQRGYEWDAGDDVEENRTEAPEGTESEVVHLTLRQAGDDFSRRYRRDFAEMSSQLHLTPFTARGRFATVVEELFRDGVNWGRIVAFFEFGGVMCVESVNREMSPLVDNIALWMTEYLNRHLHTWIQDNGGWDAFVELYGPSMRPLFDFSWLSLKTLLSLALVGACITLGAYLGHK

| SMILES | EC50 [1, 5] | AUC(0-inf) [2] | Ki [3] | Ki [4] | EC50 ([1]; Table 2, read-out: NCI-H146 Cellular Efficacy H146, EC50) | AUC ([2]; 5 mg/kg, oral, Table 2, read-out: Pharmacokinetic area under the plasma concentration curve (rat) AUC) | Cmax ([2]; 5 mg/kg, oral, Table 2, read-out: Pharmacokinetic peak plasma concentration (rat) Cmax) |
| --- | --- | --- | --- | --- | --- | --- | --- |
| O=C(NS(=O)(=O)c1ccc(N[C@H](CCN2CCCOCC2)CSc2ccccc2)c(S(=O)(=O)C(F)(F)F)c1)c1ccc(N2CCN(CC3=C(c4ccc(Cl)cc4)CCCC3)CC2)cc1 [Example 15, N-(4-(4-((2-(4-chlorophenyl)cyclohex-1-en-1-yl)methyl)piperazin-1-yl)benzoyl)-4-(((1R)-3-(1,4-oxazepan-4-yl)-1-((phenylsulfanyl)methyl)propyl)amino)-3-((trifluoromethyl)sulfonyl)benzenesulfonamide] | 9.9 nM | 1.25 µM·h | ≤ 1 nM | ≤ 1 nM |  |  |  |
| CC(C)N(C)CC[C@H](CSc1ccccc1)Nc1ccc(S(=O)(=O)NC(=O)c2ccc(N3CCN(CC4=C(c5ccc(Cl)cc5)CCC(C)(C)C4)CC3)cc2)cc1S(=O)(=O)C(F)(F)F [Example 4, N-(4-(4-((2-(4-chlorophenyl)-5,5-dimethylcyclohex-1-en-1-yl)methyl)piperazin-1-yl)benzoyl)-4-(((1R)-3-(isopropyl(methyl)amino)-1-((phenylsulfanyl)methyl)propyl)amino)-3-((trifluoromethyl)sulfonyl)benzenesulfonamide] | 58.7 nM | 6.34 µM·h | ≤ 1 nM | ≤ 1 nM |  |  |  |
| CN(C)CC[C@H](CSc1ccccc1)Nc1ccc(S(=O)(=O)NC(=O)c2ccc(N3CCN(CC4=C(c5ccc(Cl)cc5)CCC(C)(C)C4)CC3)cc2)cc1S(=O)(=O)C(F)(F)F [Example 20, N-(4-(4-((2-(4-chlorophenyl)-5,5-dimethyl-1-cyclohex-1-en-1-yl)methyl)piperazin-1-yl)benzoyl)-4-(((1R)-3-(dimethylamino)-1-((phenylsulfanyl)methyl)propyl)amino)-3-((trifluoromethyl)sulfonyl)benzenesulfonamide] | 27.7 nM | 3.11 µM·h | ≤ 1 nM | ≤ 1 nM |  |  |  |
| O=C(NS(=O)(=O)c1ccc(N[C@H](CCN2CCCC2)CSc2ccccc2)c(S(=O)(=O)C(F)(F)Cl)c1)c1ccc(N2CCN(CC3=C(c4ccc(Cl)cc4)CCCC3)CC2)cc1 [Example 35, 3-((chloro(difluoro)methyl)sulfonyl)-N-(4-(4-((2-(4-chlorophenyl)cyclohex-1-en-1-yl)methyl)piperazin-1-yl)benzoyl)-4-(((1R)-1-((phenylsulfanyl)methyl)-3-(pyrrolidin-1-yl)propyl)amino)benzenesulfonamide] | 7.6 nM | 1.26 µM·h | ≤ 1 nM | ≤ 1 nM |  |  |  |
| CC(C)N(C)CC[C@H](CSc1ccccc1)Nc1ccc(S(=O)(=O)NC(=O)c2ccc(N3CCN(CC4=C(c5ccc(Cl)cc5)CC(C)(C)CC4)CC3)cc2)cc1S(=O)(=O)C(F)(F)Cl [Example 22, 3-((chloro(difluoro)methyl)sulfonyl)-N-(4-(4-((2-(4-chlorophenyl)-4,4-dimethylcyclohex-1-en-1-yl)methyl)piperazin-1-yl)benzoyl)-4-(((1R)-3-(isopropyl(methyl)amino)-1-((phenylsulfanyl)methyl)propyl)amino)benzenesulfonamide] | 38.8 nM | 4.08 µM·h | ≤ 1 nM | ≤ 1 nM |  |  |  |
| CC1(C)CCC(CN2CCN(c3ccc(C(=O)NS(=O)(=O)c4ccc(N[C@H](CCN5C[C@@H]6C[C@H]5CO6)CSc5ccccc5)c(S(=O)(=O)C(F)(F)Cl)c4)cc3)CC2)=C(c2ccc(Cl)cc2)C1 [Example 25, 3-((chloro(difluoro)methyl)sulfonyl)-N-(4-(4-((2-(4-chlorophenyl)-4,4-dimethylcyclohex-1-en-1-yl)methyl)piperazin-1-yl)benzoyl)-4-(((1R)-3-((1S,4S)-2-oxa-5-azabicyclo[2.2.1]hept-5-yl)-1-((phenylsulfanyl)methyl)propyl)amino)benzenesulfonamide] | 16.4 nM | 1.67 µM·h | ≤ 1 nM | ≤ 1 nM |  |  |  |
| CC1(C)CCC(CN2CCN(c3ccc(C(=O)NS(=O)(=O)c4ccc(N[C@H](CCN5CCOCC5)CSc5ccccc5)c(S(=O)(=O)C(F)(F)F)c4)cc3)CC2)=C(c2ccc(Cl)cc2)C1 [Example 24, N-(4-(4-((2-(4-chlorophenyl)-4,4-dimethylcyclohex-1-en-1-yl)methyl)piperazin-1-yl)benzoyl)-4-(((1R)-3-(morpholin-4-yl)-1-((phenylsulfanyl)methyl)propyl)amino)-3-((trifluoromethyl)sulfonyl)benzenesulfonamide] | 44.3 nM | 8.04 µM·h | ≤ 1 nM | ≤ 1 nM |  |  |  |
| O=C(NS(=O)(=O)c1ccc(N[C@H](CCN2CCCC2)CSc2ccccc2)c(S(=O)(=O)C(F)(F)F)c1)c1ccc(N2CCN(CC3=C(c4ccc(Cl)cc4)CCCC3)CC2)cc1 [Example 27, N-(4-(4-((2-(4-chlorophenyl)cyclohex-1-en-1-yl)methyl)piperazin-1-yl)benzoyl)-4-(((1R)-1-((phenylsulfanyl)methyl)-3-(pyrrolidin-1-yl)propyl)amino)-3-((trifluoromethyl)sulfonyl)benzenesulfonamide] | 18.5 nM | 2.08 µM·h | ≤ 1 nM | ≤ 1 nM |  |  |  |
| O=C(NS(=O)(=O)c1ccc(N[C@H](CCN2CCOCC2)CSc2ccccc2)c(S(=O)(=O)C(F)(F)F)c1)c1ccc(N2CCN(Cc3ccccc3-c3ccc(Cl)cc3)CC2)cc1 [Example 39, N-(4-(4-((4′-chloro(1,1′-biphenyl)-2-yl)methyl)-1-piperazinyl)benzoyl)-4-(((1R)-3-(4-morpholinyl)-1-((phenylsulfanyl)methyl)propyl)amino)-3-((trifluoromethyl)sulfonyl)benzenesulfonamide] | 82.7 nM | 1.66 µM·h | ≤ 1 nM | ≤ 1 nM | 83 nM | 1.66 µM·h | 290 nM |
| CC(C)N(C)CC[C@H](CSc1ccccc1)Nc1ccc(S(=O)(=O)NC(=O)c2ccc(N3CCN(CC4=C(c5ccc(Cl)cc5)CCCCC4)CC3)cc2)cc1S(=O)(=O)C(F)(F)F [Example 5, N-(4-(4-((2-(4-chlorophenyl)-1-cyclohepten-1-yl)methyl)piperazin-1-yl)benzoyl)-4-(((1R)-3-(isopropyl(methyl)amino)-1-((phenylsulfanyl)methyl)propyl)amino)-3-((trifluoromethyl)sulfonyl)benzenesulfonamide] | 38.8 nM | 2.22 µM·h | ≤ 1 nM | ≤ 1 nM |  |  |  |
